pKi: −log10 of the molar value. Counter-ions that a name gives are not always drawn.

This experiment deals with T1, human thrombin (Homo sapiens, UniProt P00734).
T1 construct: 0.2-0.5 nM human thrombin or human factor Xa; purchased Enzyme Research Laboratories, South Bend, Ind
As to the kind of experiment: Inhibition of thrombin hydrolysis of chromogenic substrate S2238 (Ki). Type of experiment: biochemical. The following applies: S2238, pH 7.5. Here is the method: The effectiveness of compounds of the present invention as inhibitors of blood coagulation proteases was determined using purified human proteases and synthetic substrates following procedures similar to those described in Kettner et al. (1990).
For these assays, the rate of enzymatic (thrombin, Factor Xa, and Factor VIIa) hydrolysis of chromogenic substrates (S2238 (H-D-Phe-Pip-Arg-pNA), S2222, and S2288, respectively; Kabi Pharmacia, Franklin, Ohio) was measured both in the absence and presence of compounds of the present invention. […] A decrease in the rate of absorbance change at 405 nm in the presence of inhibitor is indicative of enzyme inhibition. The results of this assay are expressed as inhibitory constant, Ki.
Thrombin and Xa determinations were made in 0.10M sodium phosphate buffer, pH 7.5, containing 0.20M NaCl, and 0.5% PEG 8000. VIIa determinations were made in 0.05M tris buffer, pH 7.6, containing 0.10M NaCl, 4 mM CaCl2, and 0.1% bovine serum albumin.
Reactions were allowed to go for 30 minutes and the velocities (rate of absorbance change vs time) were measured in the time frame of 25-30 minutes. The following relationship was used to calculate Ki values. [formula] where: vo is the velocity of the control in the absence of inhibitor;
vs is the velocity in the presence of inhibitor;
I is the concentration of inhibitor;
Ki is the dissociation constant of the enzyme: inhibitor complex;
S is the concentration of substrate;
Km is the Michaelis constant.
Turning to `CNC(=NC#N)NCCCC(NC(=O)C1CCCN1C(=O)C(Cc1ccccc1)NC(=O)OC(C)(C)C)B1OC2CC3CC(C3(C)C)C2(C)O1` (centres unmarked) [Example 105, Boc--(D)Phe--Pro--boroOrn--[C(NCN)NHCH3]--C10 H16], the negative-log Ki (pKi) is > 6.30.
In the case of `CC(C)(C)OC(=O)NC(Cc1ccccc1)C(=O)N1CCCC1C(=O)NC(CCCNC(N)=O)B1OC2CC3CC(C3(C)C)C2(C)O1` (centres unmarked) [Example 108, Boc--(D)Phe--Pro--boroOrn(CONH2)--C10 H16], the negative logarithm of the Ki (pKi) is > 6.30.
Regarding `CC(C)(C)OC(=O)NC(Cc1ccccc1)C(=O)N1CCCC1C(=O)NC(CCCNC(=O)CO)B1OC2CC3CC(C3(C)C)C2(C)O1` (centres unmarked) [Example 112, Boc--(D)Phe--Pro--boroOrn(COCH2 OH)--C10 H16], the pKi was > 6.30.
In the case of `CC(C)(C)OC(=O)N[C@H](Cc1ccccc1)C(=O)N1CCCC1C(=O)NC(CCCNS(C)(=O)=O)B1OC2CC3CC(C3(C)C)C2(C)O1` (some centres unmarked) [Example 113, Boc--(D)Phe--Pro--boroOrn(N-Methanesulfonyl)--C10 H16], the negative-log Ki (pKi) is > 6.30.
In the case of `CC1(C)C2CC3OB(C(CCCNS(C)(=O)=O)NC(=O)[C@@H]4CCCN4C(=O)[C@H](N)Cc4ccccc4)OC3(C)C1C2` (some centres unmarked) [Example 114, H--(D)Phe--Pro--boroOrn(N-Methanesulfonyl)-C10 H16.HCl], the pKi is > 6.30.
Turning to `CC(=O)Nc1ccc(S(=O)(=O)NC(Cc2ccccc2)C(=O)N2CCCC2C(=O)NC(CCCNS(C)(=O)=O)B2OC3CC4CC(C4(C)C)C3(C)O2)cc1` (centres unmarked) [Example 115, 4-(N-Acetyl)Anilinesulfonyl-(D)Phe--Pro--boroOrn(N-Methanesulfonyl)-C10 H16], the negative-log Ki (pKi) is > 6.30.
As for `CC1(C)C2CC3OB(C(CCCNS(C)(=O)=O)NC(=O)C4CCCN4C(=O)C(Cc4ccccc4)NS(C)(=O)=O)OC3(C)C1C2` (centres unmarked) [Example 116, Methanesulfonyl-(D)Phe--Pro--boroOrn(N-Methanesulfonyl)-C10 H16], the pKi was > 6.30.
Then `CN(C)[C@H](Cc1ccccc1)C(=O)N1CCCC1C(=O)NC(CCCNS(C)(=O)=O)B1OC2CC3CC(C3(C)C)C2(C)O1` (some centres unmarked) [Example 117, N,N-dimethyl-(D)Phe--Pro--boroOrn-(N-Methanesulfonyl)-C10 H16.HCl], with > 6.30; and `CC(=O)NCC(=O)N[C@H](Cc1ccccc1)C(=O)N1CCC[C@H]1C(=O)NC(CCCNS(C)(=O)=O)B1OC2CC3CC(C3(C)C)C2(C)O1` (some centres unmarked) [Example 118, Ac--Gly--(D)Phe--Pro--BoroOrn(N-Methanesulfonyl)-C10 H16], with > 6.30; and `CC1(C)C2CC3OB(C(CCCNS(C)(=O)=O)NC(=O)C4CCCN4C(=O)[C@@H](Cc4ccccc4)NCC(=O)O)OC3(C)C1C2` (some centres unmarked) [Example 119, HOOCCH2 --(D)Phe--Pro--boroOrn(N-Methanesulfonyl)-C10 H16.HCl], with > 6.30.
On to `CC1(C)C2CC3OB(C(CCCNS(C)(=O)=O)NC(=O)[C@@H]4CCCN4C(=O)[C@@H](Cc4ccccc4)NS(=O)(=O)Cc4ccccc4)OC3(C)C1C2` (some centres unmarked) [Example 120, PhCH2 SO2 --(D)Phe--Pro--boroOrn(N-Methanesulfonyl)-C10 H16], for which the pKi is > 6.30.
Then `CCOCCCC(NC(=O)C1CCCN1C(=O)C(Cc1ccccc1)NC(=O)OC(C)(C)C)B1OC2CC3CC(C3(C)C)C2(C)O1` (centres unmarked) [Example 121, Boc--(D)Phe--Pro--boroGly[(CH2)3 --OCH2 CH3]--C10 H16], with > 6.30; and `CC(C)(C)OC(=O)NC(Cc1ccccc1)C(=O)N1CCCC1C(=O)NC(CCCC#N)B1OC2CC3CC(C3(C)C)C2(C)O1` (centres unmarked) [Example 122, Boc--(D)Phe--Pro--boroGly[(CH2)3 --CN]--C10 H16], with > 4.30; and `CC(C)(C)OC(=O)N[C@H](Cc1ccccc1)C(=O)N1CCC[C@H]1C(=O)NC(CC1CCC(N)CC1)B1OC2CC3CC(C3(C)C)C2(C)O1` (some centres unmarked) [Example 125, Boc--(D)Phe--Pro--NH--CH[CH2 (4-amino-cyclohexyl)]BO2 --C10 H16], with > 6.30.
Consider `CC(C)(C)OC(=O)N[C@H](Cc1ccccc1)C(=O)N1CCCC1C(=O)NC(CC1CCC(O)CC1)B1OC2CC3CC(C3(C)C)C2(C)O1` (some centres unmarked) [Example 127, Boc--(D)Phe--Pro--NH--CH[CH2 (4-hydroxy-cyclohexyl)]BO2 --C10 H16], for which the negative-log Ki (pKi) was > 6.30.
As to `CC(C)(C)OC(=O)NC(Cc1ccccc1)C(=O)N1CCCC1C(=O)NC(CC1CCC(N=C(N)N)CC1)B1OC2CC3CC(C3(C)C)C2(C)O1` (centres unmarked) [Example 128, Boc--(D)Phe--Pro--NH--CH[CH2 (4-guanidino-cyclohexyl)]BO2 --C10 H16], the pKi is > 6.30.
As to `COC(=O)C(Cc1cccc(C#N)c1)NC(=O)C1CCCN1C(=O)C(Cc1ccccc1)NC(=O)OC(C)(C)C` [Example 129, Boc--(D)Phe--Pro--(R)Phe(mCN)--OMe], the pKi is > 6.30.
With `COC(=O)C(Cc1cccc(C#N)c1)NC(=O)C1CCCN1C(=O)C(Cc1ccccc1)NC(=O)OC(C)(C)C` [Example 130, Boc--(D)Phe--Pro--(S)Phe(mCN)--OMe], the pKi was > 6.30.
Then `COC(=O)c1cccc(CC(NC(=O)C2CCCN2C(=O)C(N)Cc2ccccc2)B2OC3CC4CC(C4(C)C)C3(C)O2)c1` (centres unmarked) [Example 135, H--(D)Phe--Pro--boroPhe(mCOOMe)--C10 H16.HCl], with > 6.30.
As to `COCCCC(NC(=O)C1CCCN1C(=O)C(Cc1ccccc1)NC(=O)OC(C)(C)C)B1OC2CC3CC(C3(C)C)C2(C)O1` (centres unmarked) [Example 138, Boc--(D)--Phe--Pro--boroGly[(CH2)3 --OCH3]--C10 H16], the pKi is > 6.30.
As for `COCCCC(NC(=O)C1CCCN1C(=O)C(N)Cc1ccccc1)B1OC2CC3CC(C3(C)C)C2(C)O1` (centres unmarked) [Example 139, H--(D)--Phe--Pro--boroGly[(CH2)3 --OCH3]--C10 H16], the pKi is > 6.30.
Turning to `CN[C@H](Cc1ccccc1)C(=O)N1CCCC1C(=O)NC(CCCOC)B1OC2CC3CC(C3(C)C)C2(C)O1` (some centres unmarked) [Example 142, N-methyl-(D)--Phe--Pro--boroGly[(CH2)3 --OCH3]--C10 H16], the pKi is > 6.30.
As for `COCCCC(NC(=O)[C@@H]1CCCN1C(=O)[C@@H](Cc1ccccc1)NC(C)C)B1OC2CC3CC(C3(C)C)C2(C)O1` (some centres unmarked) [Example 143, (CH3)2 CH--(D)--Phe--Pro--boroGly[(CH2)3 --OCH3]--C10 H16], the negative-log Ki (pKi) is > 6.30.
In the case of `COCCCC(NC(=O)C1CCCN1C(=O)C(Cc1ccccc1)NC(=O)CNC(C)=O)B1OC2CC3CC(C3(C)C)C2(C)O1` (centres unmarked) [Example 144, Ac--Gly--(D)--Phe--Pro--boroGly[(CH2)3 --OCH3]--C10 H16], the pKi was > 6.30.
As for `COCCCC(NC(=O)[C@@H]1CCCN1C(=O)[C@@H](Cc1ccccc1)NC(=O)[C@@H]1CCCN1)B1OC2CC3CC(C3(C)C)C2(C)O1` (some centres unmarked) [Example 145, H--Pro--(D)--Phe--Pro--boroGly[(CH2)3 --OCH3]--C10 H16], the pKi is > 6.30.
For the compound “Ac--(D)--Phe--Pro--boroGly[(CH2)3 --OCH3 ]--C10 H16 [Example 137]”, the pKi was > 4.30.
Then “Ac--(D)Phe--Pro--boroIrg(CH3)--OH.HBr [Example 52]”, with > 6.30.
For the compound “Ac--Pro--boroPhe(m-CN)--C10 H16 [Example 35]”, the pKi was > 4.30.
In the case of “Boc--(D)Phe--Aze--boroOrn(CH=NH)--OH.HCl [Example 74]”, the pKi is > 6.30.
Consider “Boc--(D)Phe--Pro--NH--CH[4-amino-cyclohexyl]BO2 --C10 H16 [Example 126]”, for which the negative logarithm of the Ki (pKi) was > 6.30.
With “Boc--(D)Phe--Pro--boroOrn(COCH3)--C10 H16 [Example 123]”, the pKi is > 6.30.
“Boc--(D)Phe--Pro--boroOrn[C(NCN)SCH3 ]--C10 H16 [Example 107]”: the pKi is > 6.30.
Turning to “CH3 (CH2)3 SO2 --(D)Phe--Pro--boroArg(CH3)--OH.HCl [Example 65]”, the pKi was > 6.30.
In the case of “Cbz--(D)Phe--Pro--boroIrg(CH3)--C10 H16.HBr [Example 51]”, the pKi was > 6.30.
With “H--(D)Phe--Pro--boroOrn(CH=NH)]--C10 H16.0.5 HCl.0.5 BSA [Example 8]”, the pKi was > 6.30.
For the compound “H--(D)Phe--Pro--boroOrn(CONH2)--C10 H16.HCl [Example 109]”, the pKi is > 6.30.
Turning to “H--(D)Phe--Pro--boroPhe(m-CN)--C10 H16.HCl [Example 18]”, the negative-log Ki (pKi) was > 6.30.
“H--(D)Thiazolylalanine-Pro--boroPhe(m-CN)--C10 H16.HCl [Example 29]”: the pKi is > 6.30.
Consider “HOOCCH2 --(D)Phe--Pro--boroOrn(CONH2)--C10 H16.HCl [Example 111]”, for which the negative-log Ki (pKi) is > 6.30.
As to “HOOCCH2 --(D)Phe--Pro--boroOrn[C(NCN)NHCH3 ]--C10 H16.HCl [Example 106]”, the negative-log Ki (pKi) was > 6.30.
As for “Hydrocinnamoyl-Pro--boroArg(CH3)--OH.HCl [Example 55]”, the pKi was > 6.30.
Then “Hydrocinnamoyl-Pro--boroIrg(CH2 CH3)--OH.HBr [Example 53]”, with > 4.30.
For “Hydrocinnamoyl-Pro--boroIrg(CH2 CH=CH2)--OH.HBr [Example 49]”, the pKi is < 3.30.
For “Hydrocinnamoyl-Pro--boroIrg(CH3)--OH.HBr [Example 50]”, the pKi is > 4.30.

Values taken from patent publication US5658885A, “Amidino and guanidino substituted boronic acid inhibitors of trypsin-like enzymes” (The DuPont Merck Pharmaceutical Company, priority 1994, dated 1997).
